# Reference: ChEMBL document CHEMBL5727311, “Heterobicyclic N-aminophenyl-amides as inhibitors of histone deacetylase” (2019)
# Biological target: Histone deacetylase 2 (Homo sapiens, UniProt Q92769)
# Assay: Reporter Displacement Assay: HDAC2 containing a C-terminal HIS-Tag (Proteros) and fluorescently-labeled anti-HIS-antibody are diluted in one vial in assay buffer 50 mM Tris, pH 8.0, 1 mM DTT, 150 mM NaCl, and 0.01% Tween20. Components are pre-incubated for 30 min, then a small volume of reporter probe (Proteros) is added from a highly concentrated stock and incubation is continued for another 30 min. Final concentrations after adding the reporter probe amount to 20 nM HDAC2, 4 nM antibody, and 180 nM probe.
# Sequence of Histone deacetylase 2 (Q92769 whole entry): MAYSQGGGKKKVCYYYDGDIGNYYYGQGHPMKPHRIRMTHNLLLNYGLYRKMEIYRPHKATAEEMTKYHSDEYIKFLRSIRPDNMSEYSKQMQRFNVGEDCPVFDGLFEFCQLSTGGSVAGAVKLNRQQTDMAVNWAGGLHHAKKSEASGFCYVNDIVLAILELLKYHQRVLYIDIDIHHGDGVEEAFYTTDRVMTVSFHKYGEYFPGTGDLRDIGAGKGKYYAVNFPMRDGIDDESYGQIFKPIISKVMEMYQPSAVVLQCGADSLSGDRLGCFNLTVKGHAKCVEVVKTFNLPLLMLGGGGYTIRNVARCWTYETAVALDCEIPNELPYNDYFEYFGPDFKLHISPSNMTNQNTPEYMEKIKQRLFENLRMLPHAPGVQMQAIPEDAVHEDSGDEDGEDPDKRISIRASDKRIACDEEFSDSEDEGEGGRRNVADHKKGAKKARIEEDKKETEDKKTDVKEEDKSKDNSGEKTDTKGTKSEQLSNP
structure (smiles),measurement,value
Nc1ccc(-c2ccncc2)cc1NC(=O)N1Cc2cncnc2C1,Kd,< 100 nM
